In publication PMC9589286, “Ruthenium polypyridine complexes with triphenylamine groups as antibacterial agents against Staphylococcus aureus with membrane-disruptive mechanism” (Frontiers in Chemistry, 2022):
Values after ≈ are worked out from the molar mass of the structure shown.

Assays:
Staphylococcus aureus [1] = assay: Drug resistance study, 20 generations at sub inhibitory concentration; assay type: cell-based; details: 20 passages at sublethal concentration
Experimental: After Staphylococcus aureus was cultured for 5 h, the bacteria were diluted 1000 times with fresh TSB and the MIC of Ru-3 was measured. The bacterial solution grown at the sub inhibitory concentration of compound Ru-3 was inoculated into fresh TSB medium for 5 h, then the MIC was measured, and the above procedure was repeated for 20 generations. Ampicillin was used as the control.

Staphylococcus aureus [2] = assay: Checkerboard assay with antibiotics; assay type: cell-based; details: for MIC of antibiotics: antibiotic alone, S. aureus; for FICI: combination of the antibiotic with Ru-3, S. aureus
Experimental: Firstly, the MIC of all selected antibiotics was determined by the above method. Staphylococcus aureus was cultured overnight and diluted 1000 times with fresh TSB. Then 200 μL the diluted bacterial suspension, 25 μL Ru-3 of gradient concentrations and 25 μL antibiotics of gradient concentrations were mixed in 96 well plates and further cultured at 37°C for 20 h. MIC values of single drug and the best combination effect (combination of MICA and MICB) were measured. Graphpad prism software was used to draw the checkerboard map and isoline map.

Galleria mellonella = assay: Toxicity in insect model Galleria mellonella; assay type: in vivo; details: larvae, 120 h
Experimental: Based on the excellent antibacterial effect of Ru-3 in vitro, its biosafety was further evaluated. Firstly, the hemolytic activity of ruthenium complexes on rabbit red blood cells was measured to study their toxicity. […] In view of its good compatibility with mammalian red blood cells, the toxicity of Ru-3 to eukaryotes was also studied. Herein, Ru-3 was tested with Gallery melonella larvae. […] When the concentration of Ru-3 was 64 mg kg^−1, the survival rate was still 75%.
FIGURE 15 Test results of Ru compounds toxicity (A) % hemolysis at 256 μg ml^−1 of Ru compounds. (B) Kaplan-Meier survival curves. […] The larvae were incubated at 37.5°C and live/dead scores were conducted at 120 h (C) H&E staining images of the infected tissues with different treatments.

Staphylococcus aureus [3] = assay: MIC by microdilution in TSB broth; assay type: cell-based; details: 20 h
Experimental: Antibacterial activity was evaluated by measuring MIC (minimum inhibitory concentration) and MBC (minimum bactericidal concentration) values. The MIC value was measured by the microdilution method using TSB broth with 96 well plates ([Carlsen et al., 1981]) and the MBC value was determined by LB plates. In brief, the overnight cultured bacteria were 1: 1000 diluted with fresh medium to get a bacterial suspension. After incubation at 37°C for 20 h, the growth of bacteria is monitored by observing the turbidity of the culture. The bacterial solution was diluted as above method and the complexes were incubated with bacterial solution for 2 h. Then 100 μL bacterial solution was taken for plate coating. The Staphylococcus aureus growth inhibition trend in the presence of complexes was obtained. The MBC values of complexes were determined by LB plates after culturing in the same method for 24 h. All experiments were controlled with sterile water and repeated in parallel at least three times.

Staphylococcus aureus [4] = assay: Nucleic acid leakage, 260 nm absorbing material; assay type: cell-based; details: 100 μg/ml, 2 h
Experimental: To verify the membrane damage, the loss of 260 nm absorbing material was carried out ([Yu et al., 2021]). Briefly, overnight cultured bacteria were diluted 1:1000 in fresh TSB and shaken at 37°C for about 5 h until the exponential stage was reached. The supernatant was removed by centrifugation, then the bacteria were resuspended to OD600 = 1 with PBS, which was further treated with Ru-3 or polymyxin B and centrifuged after 2 h to precipitate bacterial cells. Subsequently, the loss of 260 nm absorbing material, including the release of DNA and RNA in the filtrate, was measured at 260 nm.

[5] = Partition coefficient, shake flask 1-octanol/PBS; assay type: physicochemical
Experimental: The partition coefficients of all complexes were determined by standard shake flask method in 1-octanol and buffer liquid system ([Yang et al., 2021]). In brief, the octanol/water partition coefficient is obtained by the incubation of 2 ml of 25 μg ml^−1 ruthenium complex 1-octanol and 2 ml PBS samples. After shaking the solution for 6 h, the samples were stood for 2 h. The absorbance of octanol complex at 282 nm before and after oscillation was measured. The absorbance of 1-octanol before oscillation minus the absorbance of 1-octanol after oscillation is the absorbance of the complex in water. Each experiment was repeated three times. The partition coefficient is reported as the number of octanol divided by the number of water.

rabbit red blood cells = assay: Hemolytic activity on rabbit red blood cells; assay type: cell-based; details: 37°C, 30 min
Experimental: Obtain red blood cells from fresh sterile rabbit blood and rabbit blood was washed three times with PBS. Ru(II) complexes in 950 µL phosphoric acid buffer (PBS) of different concentrations and 50 μL red blood cells were added into a 1.5 ml sample tube, incubated at 37°C for 30 min. The negative control was red blood cell suspension containing only PBS, and the positive control was PBS containing 0.1% (V/V) Triton X-100. After incubating the mixture was centrifugated (2000 rpm for 2 min) and the supernatant (200 μL) was transfered to another 96 well plate. Finally, the hemolysis rate was calculated by measuring the absorbance at 540 nm.

Compound	MIC of antibiotics (Staphylococcus aureus [2])	FICI (Staphylococcus aureus [2])	MIC (Staphylococcus aureus [3]; S. aureus, 37°C)	other results
CC1(C)S[C@@H]2[C@H](NC(=O)[C@H](N)c3ccccc3)C(=O)N2[C@H]1C(=O)O [Ampicillin, reference compound]	0.39 µg/mL	0.38		increase of MIC value after 20 generations (Staphylococcus aureus [1]): more than 1024 times; Kaplan-Meier survival curve (Galleria mellonella): coincides with control’s curve
O=C(N[C@H](CO)[C@H](O)c1ccc([N+](=O)[O-])cc1)C(Cl)Cl [Chloramphenicol]	6.25 µg/mL	0.50		
CNC(C)C1CCC(N)C(OC2C(N)CC(N)C(OC3OCC(C)(O)C(NC)C3O)C2O)O1 (centres unmarked) [Gentamicin]	6.25 µg/mL	0.38		
NC[C@H]1O[C@H](O[C@H]2[C@H](O)[C@@H](O[C@H]3O[C@H](CO)[C@@H](O)[C@H](N)[C@H]3O)[C@H](N)C[C@@H]2N)[C@H](O)[C@@H](O)[C@@H]1O [Kanamycin]	50.00 µg/mL	0.38		
Cc1ccc(N(c2ccc(C)cc2)c2ccc(-c3nc4c5cccnc5c5ncccc5c4[nH]3)cc2)cc1 [PMA]			>256 µg/mL	
O.O.O.[Cl][Ru]([Cl])[Cl] [RuCl3∙3H2O]			>256 µg/mL	
CN(C)[C@@H]1C(O)=C(C(N)=O)C(=O)[C@@]2(O)C(O)=C3C(=O)c4c(O)cccc4[C@@](C)(O)[C@H]3C[C@@H]12 [Tetracycline]	0.39 µg/mL	0.50		
CN[C@H](CC(C)C)C(=O)N[C@H]1C(=O)N[C@@H](CC(N)=O)C(=O)N[C@H]2C(=O)N[C@H]3C(=O)N[C@H](C(=O)N[C@H](C(=O)O)c4cc(O)cc(O)c4-c4cc3ccc4O)[C@H](O)c3ccc(c(Cl)c3)Oc3cc2cc(c3O[C@@H]2O[C@H](CO)[C@@H](O)[C@H](O)[C@H]2O[C@H]2C[C@](C)(N)[C@H](O)[C@H](C)O2)Oc2ccc(cc2Cl)[C@H]1O [Vancomycin]	2 µg/mL	1.00		MIC (Staphylococcus aureus [3]; Staphylococcus aureus): 2 µg/mL (≈ 1.38 µM)
Polymyxin B [reference compound]				Δ% Nucleic acid leakage (Staphylococcus aureus [4]): 23%
[Ru(bpy)2PMA] (PF6)2 [Ru-2]			8 µg/mL	LgP [5]: 0.97; logD o/w [5]: ca. 0.9681; % Hemolysis at 256 μg/ml (rabbit red blood cells): 16%
[Ru(dmob)2PMA] (PF6)2 [Ru-1]			16 µg/mL	LgP [5]: 1.14; logD o/w [5]: ca. 1.1445; % Hemolysis at 256 μg/ml (rabbit red blood cells): 8%
